The source of these data is paper PMC8073907, “Peptide targeting of lysophosphatidylinositol-sensing GPR55 for osteoclastogenesis tuning” (Cell Communication and Signaling : CCS, 2021).

For this test, the system named is RAW264.7 cells. Kind of test: RANKL-induced transcription of osteoclastogenesis markers in RAW264.7 cells (real-time PCR). It is filed as cell-based, murine. The note with it: RANKL 15 ng/mL, 72 h; 1 µM soybean LPI or 1 µM ML-184. The method, then:
Total RNA was extracted using RNeasy isolation kits, cDNAs were obtained using QuantiTect Reverse Transcription kits, and real-time PCRs were performed with QuantiTect SYBR Green PCR kits (all from Qiagen, Hilden, Germany), according to the manufacturer instructions. The primers used for the real-time PCRs and their annealing temperatures are listed in the Additional file 1: Table S1. Human hypoxanthine phosphoribosyltransferase 1 (HPRT1) or murine β2-microglobulin were followed as housekeeping genes. The real-time PCR programme consisted of an initial 15 min at 95 °C, and then 45 cycles as follows: 94 °C for 15 s, annealing temperature of each primer for 30 s, and 72 °C for 30 s. The real-time PCR machine used was a LightCycler 480 Instrument II (Roche, Indianapolis, IN, USA).
For transient interference of Gpr55, RAW264.7 cells were plated at 6 × 10^5 cells/well in six-well plates in growth medium without antibiotics. Twenty-four hours later, the cells were transfected with 250 pmol/well non-targeting small-interfering (si)RNAs (si-NT; siGENOME siRNA Pool #2; D-001206-14; Dharmacon, Chicago, IL, USA) or Gpr55-specific siRNAs (si-GPR55; siGENOME mouse GPR55 SMART pool; M-043590-01; Dharmacon) using Lipofectamine LTX and Plus Reagent, according to the manufacturer instructions. Twenty-four hours later, the cells were plated for the different assays or for RNA extraction. The efficiency of interference was monitored by real-time PCR after 72 h of interference, using the primers listed in the Additional file 1: Table S1. β2-microglobulin was followed as a housekeeping gene.
For the osteoclastogenesis in-vitro assay, RAW264.7 cells were plated in differentiation medium (α-MEM with 10% heat-inactivated FBS, 2 mM L-glutamine, 100 U/mL penicillin, and 100 ug/mL streptomycin) at a density of 5 × 10^3 cells/well in 24-well plates on coverslips for morphological analysis, or at 2 × 10^4 cells/well in six-well plates for RNA extraction. Twenty-four hours later and every 48 h, the medium was replaced and the cells were treated with 15–30 ng/mL RANKL with DMSO and/or PBS as carriers, or with GPR55 antagonists/ agonists (0.5 µM ML-191, 30 µM O1918, 0.5 µM CBD, 0.5 μM CID16020046 1 µM soybean LPI, 1 μM ML-184), or with the peptides (150 nM peptide-P1; or the irrelevant peptide, Irr_P). Twenty-four hours after the last addition, the cells were fixed with 4% paraformaldehyde for morphological analyses or harvested for RNA extraction (see above).
A general note: In qPCR the cycle at which signal appears reflects the starting amount.

With `Cc1cccc(N2CCN(C(=O)c3cc(S(=O)(=O)N(C)C)ccc3N3CCCC3)CC2)c1C` [ML-184], the “RANKL-induced transcription of Ctr, si-NT versus si-GPR55 cells” value was “similarly increased RANKL-induced transcription of Ctr only in precursor cells treated with non-targeting siRNAs, and not in those silenced for GPR55”.
